Data taken from patent US8293979B2, “Weed controller metabolism proteins, genes, thereof and use of the same” (Sumitomo Chemical Company, Limited, priority 2001, dated 2012).

System: present invention protein (A16)
Assay: Metabolism of compounds by the present invention protein (A16), reaction solution, HPLC
Type: in vitro ADME, Streptomyces ornatus IFO 13069t
Conditions: 12.5 ppm of compound, components A, B, C, 20 μl supernatant fraction of Example 49(2), 30° C. for 10 minutes
Method: There was prepared 100 μl of a reaction solution of 50 mM potassium phosphate buffer (pH7.0) containing 12.5 ppm of compound (XII), 3 mM of β-NADPH (hereinafter, referred to as “component A”) (Oriental Yeast Company), 1 mg/ml of a ferredoxin derived from spinach (hereinafter referred to as “component B”) (Sigma Company), 0.15 U/ml of ferredoxin reductase (hereinafter, referred to as “component C”) (Sigma Company) and 20 μl of the supernatant fraction recovered in Example 49(2). The reaction solution was maintained at 30° C. for 10 minutes. […] Forty microliters (40 μl) of the liquid filtrate (hereinafter, the liquid filtrate derived from the reaction solution containing component A, component B, component C and 20 μl of supernatant fraction recovered in Example 49(2) is referred to as “(XII) metabolism solution (A16);” further, the liquid filtrate derived from the reaction solution containing no component A, no component B, no component C and no supernatant fraction recovered in Example 49(2) is referred to as “(XII) control solution (A16)”) were analyzed on a HPLC under the above analysis condition 1. Compared to the concentration of compound (XII) detected from (XII) control solution (A16), the concentration of compound (XII) detected from (XII) metabolism solution (A16) was lower. […]

Cn1c(C(F)(F)F)cc(=O)n(-c2cc(Oc3cccnc3OCC(=O)O)c(Cl)cc2F)c1=O [compound (XII)]
concentration of the compound detected from metabolism solution (A16) compared to control solution (A16): lower
